The source of these data is paper doi:10.1101/2022.05.03.490502v1 (biorxiv, 2022).

For experiment [1], the target named is T1, LAT1 (hLAT1; LAT1/4F2hc) (Homo sapiens, UniProt Q01650). As to the kind of experiment: cis-inhibition of [3H]-gabapentin uptake, TREx HEK-hLAT1 cells. Type of experiment: cell-based.
The target in experiment [2] is T1, LAT1 (hLAT1; LAT1/4F2hc). Nature of the experiment: cell-based. Also on record: species or system TREx HEK-hLAT1.

T1 sequence (Q01650 whole entry): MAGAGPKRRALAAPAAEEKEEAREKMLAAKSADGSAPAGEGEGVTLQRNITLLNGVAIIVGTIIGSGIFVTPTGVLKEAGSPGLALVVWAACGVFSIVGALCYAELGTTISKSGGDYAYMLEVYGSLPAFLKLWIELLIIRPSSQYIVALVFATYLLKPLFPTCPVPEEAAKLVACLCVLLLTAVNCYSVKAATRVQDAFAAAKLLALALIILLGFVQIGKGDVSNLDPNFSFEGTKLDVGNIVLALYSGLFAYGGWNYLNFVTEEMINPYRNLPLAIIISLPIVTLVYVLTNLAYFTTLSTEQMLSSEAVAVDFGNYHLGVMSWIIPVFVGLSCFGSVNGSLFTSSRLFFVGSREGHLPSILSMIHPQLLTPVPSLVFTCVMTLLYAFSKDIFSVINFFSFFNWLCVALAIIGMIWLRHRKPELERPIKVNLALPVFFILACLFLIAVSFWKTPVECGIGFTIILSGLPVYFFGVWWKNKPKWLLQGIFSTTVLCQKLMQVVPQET
T1 sequence (P08195 103-630 partner): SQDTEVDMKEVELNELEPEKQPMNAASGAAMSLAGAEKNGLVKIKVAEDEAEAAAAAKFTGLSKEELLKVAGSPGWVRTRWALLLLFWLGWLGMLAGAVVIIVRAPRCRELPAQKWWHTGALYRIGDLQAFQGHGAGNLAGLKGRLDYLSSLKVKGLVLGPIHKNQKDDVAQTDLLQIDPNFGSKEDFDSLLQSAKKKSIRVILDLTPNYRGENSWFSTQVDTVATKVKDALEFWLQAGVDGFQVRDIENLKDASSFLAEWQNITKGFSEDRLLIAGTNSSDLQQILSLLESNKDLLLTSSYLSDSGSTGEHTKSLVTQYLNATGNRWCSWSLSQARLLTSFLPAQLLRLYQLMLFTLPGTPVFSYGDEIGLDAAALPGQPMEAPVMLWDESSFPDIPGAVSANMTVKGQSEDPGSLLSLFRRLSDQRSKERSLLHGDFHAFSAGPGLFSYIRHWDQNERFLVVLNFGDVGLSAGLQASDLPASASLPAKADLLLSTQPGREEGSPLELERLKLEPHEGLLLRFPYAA

Take `N[C@@H](CNC(=O)OCC1c2ccccc2-c2ccccc21)C(=O)O` [KH1]: the midpoint of inhibition in experiment [1], the IC50, lay at 44.4 µM.
Turning to `N[C@@H](Cc1c[nH]c2ccc(OCc3ccccc3)cc12)C(=O)O` [KH13], half-maximal inhibition in experiment [1] (IC50) required 11.8 µM.
In the case of `N[C@@H](Cc1ccc(/N=N/c2ccccc2)cc1)C(=O)O` [EN14], in experiment [2], the half-inhibitory concentration (IC50) (in general, the concentration at which inhibition is half-maximal) is 16 µM.
For the compound `N[C@@H](Cc1ccccc1)C(=O)O` [L-Phe], the IC50 in experiment [2] is 91.8 µM.
For the compound `NC(Cc1ccc(O)c(OCc2ccccc2)c1)C(=O)O` (centres unmarked) [EN2], the midpoint of inhibition in experiment [1], the IC50, lay at 63.3 µM.
